As a reminder, the Ki is the dissociation constant of the complex between target and ligand, obtained from inhibition or displacement.

This experiment deals with Wild-type cruzipain (Trypanosoma cruzi, UniProt P25779). Briefly: Trypanosoma cruzi cruzipain peptidase activity assay (Ki). In kind it is biochemical. The settings on record: read-out: Ki, inhibitors of cruzain and cruzipains. The method, then:
Unless otherwise stated, all general chemicals and biochemicals were purchased from either the Sigma Chemical Company, Poole, Dorset, U.K or from Fisher Scientific UK, Loughborough, Leicestershire, U.K. Absorbance assays were carried out in flat-bottomed 96-well plates (Spectra; Greiner Bio-One Ltd., Stonehouse, Gloucestershire, U.K.) using a SpectraMax PLUS384 plate reader (Molecular Devices, Crawley, U.K.). Fluorescence high throughput assays were carried out in either 384-well microtitre plates (Corning Costar 3705 plates, Fisher Scientific) or 96-well ‘U’ bottomed Microfluor W1 microtitre plates (Thermo Labsystems, Ashford, Middlesex, U.K.). Fluorescence assays were monitored using a SpectraMax Gemini fluorescence plate reader (Molecular Devices). For substrates employing either a 7-amino-4-methylcoumarin (AMC) or a 7-amino-4-trifluoromethylcoumarin (AFC) fluorophore, assays were monitored at an excitation wavelength of 365 nm and an emission wavelength of 450 nm and the fluorescence plate reader calibrated with AMC. For substrates employing a 3-amino-benzoyl (Abz) fluorophore, assays were monitored at an excitation wavelength of 310 nm and an emission wavelength of 445 nm; the fluorescence plate reader calibrated with 3-amino-benzamide (Fluka). Unless otherwise indicated, all the peptidase substrates were purchased from Bachem UK, St Helens, Merseyside, UK. Substrates utilizing fluorescence resonance energy transfer methodology (i.e. FRET-based substrates) were synthesized at Incenta Limited using published methods (Atherton & Sheppard, Solid Phase Peptide Synthesis, IRL Press, Oxford, U.K, 1989) and employed Abz (2-aminobenzoyl) as the fluorescence donor and 3-nitro-tyrosine [Tyr(NO2)] as the fluorescence quencher (Meldal, M. and Breddam, K., Anal. Biochem, 195, 141-147, 1991). Hydroxyethylpiperazine ethanesulfonate (HEPES), tris-hydroxylmethyl aminomethane (tris) base, bis-tris-propane and all the biological detergents (e.g. CHAPS, zwittergents, etc.) were purchased from CN Biosciences UK, Beeston, Nottinghamshire, U.K. Glycerol was purchased from Amersham Pharmacia Biotech, Little Chalfont, Buckinghamshire, U.K. Stock solutions of substrate or inhibitor were made up to 10 mM in 100% dimethylsulfoxide (DMSO) (Rathburns, Glasgow, U.K.) and diluted as appropriately required. In all cases the DMSO concentration in the assays was maintained at less than 1% (vol./vol.).
Assay protocols were based on literature precedent (Table 4; Barrett, A. J., Rawlings, N. D. and Woessner, J. F., 1998, Handbook of Proteolytic Enzymes, Academic Press, London and references therein) and modified as required to suit local assay protocols. Enzyme was added as required to initiate the reaction and the activity, as judged by the change in fluorescence upon conversion of substrate to product, was monitored over time. All assays were carried out at 25±1° C.
Wild-type cruzipain, derived from Trypanosoma cruzi Dm28 epimastigotes, was obtained from Dr. Julio Scharfstein (Instituto de Biofisica Carlos Chagas Filho, Universidade Federal do Rio de Janeiro, Rio de Janeiro, Brazil). Activity assays were carried out in 100 mM sodium phosphate, pH 6.75 containing 1 mM EDTA and 10 mM L-cysteine using 2.5 nM enzyme. […] The rate of conversion of substrate to product was derived from the slope of the increase in fluorescence monitored continuously over time.
The apparent inhibition constant (Ki) for each compound was determined on the basis that inhibition was reversible and occurred by a pure-competitive mechanism. The Ki values were calculated, from the dependence of enzyme activity as a function of inhibitor concentration, by direct regression analysis (Prism v 3.02) using Equation 2 (Cornish-Bowden, A., 1995.). [formula]

The structures appear in SMILES notation.

Sequence of Wild-type cruzipain (P25779 whole entry): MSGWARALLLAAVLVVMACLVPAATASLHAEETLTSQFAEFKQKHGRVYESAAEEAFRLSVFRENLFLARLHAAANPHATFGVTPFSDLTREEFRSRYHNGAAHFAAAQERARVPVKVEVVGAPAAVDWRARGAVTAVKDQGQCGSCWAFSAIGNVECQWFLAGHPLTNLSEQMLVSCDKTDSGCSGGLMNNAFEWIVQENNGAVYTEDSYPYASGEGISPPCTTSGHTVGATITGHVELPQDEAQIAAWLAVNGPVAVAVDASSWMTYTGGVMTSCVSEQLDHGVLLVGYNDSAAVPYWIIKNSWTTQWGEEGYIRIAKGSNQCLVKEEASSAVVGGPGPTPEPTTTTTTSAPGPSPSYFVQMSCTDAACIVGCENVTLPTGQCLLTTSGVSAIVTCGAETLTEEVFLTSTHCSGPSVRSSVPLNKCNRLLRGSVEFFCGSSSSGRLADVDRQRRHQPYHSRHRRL

Take `CC(C)C[C@H](NC(=O)c1ccc(C(C)(C)C)cc1)C(=O)N1CC[C@@H]2[C@H]1C(=O)CN2C(=O)c1ccccn1` [Example 4, (3aR,6aS)-4-tert-Butyl-N-{(1S)-3-methyl-1-[6-oxo-4-(pyridine-2-carbonyl)-hexahydro-pyrrolo[3,2-b]pyrrole-1-carbonyl]-butyl}-benzamide]: the Ki was < 5 µM.
As to `CC(C)(C)c1ccc(C(=O)N[C@@H](Cc2cccs2)C(=O)N2CC[C@@H]3[C@H]2C(=O)CN3C(=O)c2ccccc2)cc1` [Example 22, (3aR,6aS)-N-[(1S)-2-(4-Benzoyl-6-oxo-hexahydro-pyrrolo[3,2-b]pyrrol-1-yl)-2-oxo-1-thiophen-2-ylmethyl-ethyl]-4-tert-butyl-benzamide], the Ki is < 5 µM.
As for `CC(C)(C)c1ccc(C(=O)N[C@@H](Cc2cccs2)C(=O)N2CC[C@@H]3[C@H]2C(=O)CN3C(=O)c2cccnc2)cc1` [Example 23, (3aR,6aS)-4-tert-Butyl-N-{(1S)-2-oxo-2-[6-oxo-4-(pyridine-3-carbonyl)-hexahydro-pyrrolo[3,2-b]pyrrole-1-yl]-1-thiophen-2-ylmethyl-ethyl}-benzamide], the Ki was < 5 µM.
`CC(C)C[C@H](NC(=O)c1ccc(C(C)(C)C)cc1)C(=O)N1CC[C@@H]2[C@H]1C(=O)CN2C(=O)c1ccc2c(c1)OCCO2` [Example 30, (3aR,6aS)-4-tert-Butyl-N-{(1S)-1-[4-(2,3-dihydro-benzo[1,4]dioxine-6-carbonyl)-6-oxo-hexahydro-pyrrolo[3,2-b]pyrrole-1-carbonyl]-3-methyl-butyl}-benzamide]: the Ki is < 5 µM.
For the molecule `CC(C)C[C@H](NC(=O)c1ccc(C(C)(C)C)cc1)C(=O)N1CC[C@@H]2[C@H]1C(=O)CN2C(=O)c1cccc2ccccc12` [Example 33, (3aR,6aS)-tert-Butyl-N-{(1)-3-methyl-1-[4-(naphthalene-1-carbonyl)-6-oxo-hexahydro-pyrrolo[3,2-b]pyrrole-1-carbonyl-]-butyl}-benzamide], the Ki is < 5 µM.
Regarding `CC(C)C[C@H](NC(=O)c1ccc(C(C)(C)C)cc1)C(=O)N1CC[C@@H]2[C@H]1C(=O)CN2C(=O)c1ccccc1Cc1ccccc1` [Example 36, (3aR,6aS)-N-{(1S)-1-[4-(2-Benzyl-benzoyl)-6-oxo-hexahydro-pyrrolo[3,2-b]pyrrole-1-carbonyl]-3-methyl-butyl}-4-tert-butyl-benzamide], the Ki was < 5 µM.
`CC(C)C[C@H](NC(=O)c1ccc(N(C)C)cc1)C(=O)N1CC[C@@H]2[C@H]1C(=O)CN2C(=O)c1ccc(O)cc1` [Example 49, (3aR,6aS)-4-Dimethylamino-N-{(1S)-1-[4-(4-hydroxy-benzoyl)-6-oxo-hexahydro-pyrrolo[3,2-b]pyrrole-1-carbonyl]-3-methyl-butyl}-benzamide]: the Ki was < 5 µM.
In the case of `CC(C)C[C@H](NC(=O)c1ccc(N(C)C)cc1)C(=O)N1CC[C@@H]2[C@H]1C(=O)CN2C(=O)c1ccc(S(C)(=O)=O)s1` [Example 51, (3aR,6aS)-4-Dimethylamino-N-{(1S)-1-[4-(5-methanesulfonyl-thiophene-2-carbonyl)-6-oxo-hexahydro-pyrrolo[3,2-b]pyrrole-1-carbonyl]-3-methyl-butyl}-benzamide], the Ki was < 5 µM.
On to `Cc1ccccc1C(=O)N1CC(=O)[C@@H]2[C@H]1CCN2C(=O)[C@H](CC(C)C)NC(=O)c1ccc(N(C)C)cc1` [Example 53, (3aR,6aS)-4-Dimethylamino-N-{(1S)-3-methyl-1-[4-(2-methyl-benzoyl)-6-oxo-hexahydro-pyrrolo[3,2-b]pyrrole-1-carbonyl]-butyl}-benzamide], for which the Ki was < 5 µM.
On to `Cc1ccc(C(=O)N2CC(=O)[C@@H]3[C@H]2CCN3C(=O)[C@H](CC(C)C)NC(=O)c2ccc(N(C)C)cc2)cc1` [Example 55, (3aR,6aS)-4-Dimethylamino-N-{(1S)-3-methyl-1-[4-(4-methyl-benzoyl)-6-oxo-hexahydro-pyrrolo[3,2-b]pyrrole-1-carbonyl]-butyl}-benzamide], for which the Ki was < 5 µM.

The record behind these values is US20060100431A1, “Biologically active compounds” (Amura Therapeutics Limited, priority 2002, published 2006).
